Counter-ions that a name gives are not always drawn.

Minimal effective concentration data for 43 molecules are collected here from patent US20170233345A1, “SUBSTITUTED QUINOLINE-4-CARBOXAMIDES AND USE THEREOF” (BAYER PHARMA AKTIENGESELLSCHAFT, priority 2014, published 2017).

The assay concerns recombinant guanylate cyclase reporter cell line. Briefly: Effect on a recombinant guanylate cyclase reporter cell line. The conditions noted are these: in some cases mean values from individual determinations, read-out: MEC (minimum effective concentration). Type of assay: cell-based. The protocol:
B-2. Effect on a Recombinant Guanylate Cyclase Reporter Cell Line
The cellular activity of the compounds according to the invention is determined using a recombinant guanylate cyclase reporter cell line, as described in F. Wunder et al., Anal. Biochem. 339, 104-112 (2005).
Representative MEC values (MEC=minimum effective concentration) for the compounds of the invention are shown in the table below (in some cases as mean values from individual determinations): […]
Consider `COc1ccc(CC(C)(N)CNC(=O)c2ccnc3c(OCc4c(F)cccc4F)cccc23)cc1` (racemic) [Example 35, rac-N-[2-amino-3-(4-methoxyphenyl)-2-methylpropyl]-8-[(2,6-difluorobenzyl)oxy]quinoline-4-carboxamide trifluoroacetate], for which the minimal effective concentration was 3 µM.

Regarding `CC(N)(CNC(=O)c1ccnc2c(OCc3c(F)cccc3F)cccc12)C1CC1` (racemic) [Example 42, rac-N-(2-Amino-2-cyclopropylpropyl)-8-[(2,6-difluorobenzyl)oxy]quinoline-4-carboxamide], the minimal effective concentration amounted to 10 µM.

Turning to `Cc1cc(OCc2c(F)cccc2F)c2nccc(C(=O)NC(C)(CO)c3nnn(C(F)F)n3)c2c1` (racemic) [Example 49, rac-8-[(2,6-Difluorobenzyl)oxy]-N-{2-[2-(difluoromethyl)-2H-tetrazol-5-yl]-1-hydroxypropan-2-yl}-6-methylquinoline-4-carboxamide], the minimal effective concentration worked out at 2 µM.

Take `COc1ccc(CC(C)(N)CNC(=O)c2ccnc3c(OCc4c(F)cccc4F)cccc23)cc1` (single isomer, unassigned; enantiomer a) [Example 36, ent-N-[2-Amino-3-(4-methoxyphenyl)-2-methylpropyl]-8-[(2,6-difluorobenzyl)oxy]quinoline-4-carboxamide (Enantiomer A)]: the minimal effective concentration was determined as 3 µM.

For the molecule `CC(N)(CCC(F)(F)F)CNC(=O)c1ccnc2c(OCc3c(F)cccc3F)cccc12` (single isomer, unassigned; enantiomer b) [Example 6, ent-N-(2-Amino-5,5,5-trifluoro-2-methylpentyl)-8-[(2,6-difluorobenzyl)oxy[quinoline-4-carboxamide (Enantiomer B)], the minimal effective concentration is 0.3 µM.

With `CC(N)(CNC(=O)c1ccnc2c(OCc3c(F)cccc3F)cccc12)CC(F)F` (single isomer, unassigned; enantiomer b) [Example 7, ent-N-(2-Amino-4,4-difluoro-2-methylbutyl)-8-[(2,6-difluorobenzyl)oxy]quinoline-4-carboxamide (Enantiomer B)], the minimal effective concentration turned out to be 2 µM.

`COc1ccc(CC(C)(N)CNC(=O)c2ccnc3c(OCc4c(F)cccc4F)cccc23)cc1` (single isomer, unassigned; enantiomer b) [Example 37, ent-N-[2-Amino-3-(4-methoxyphenyl)-2-methylpropyl]-8-[(2,6-difluorobenzyl)oxy]quinoline-4-carboxamide (Enantiomer B)]: the minimal effective concentration is given as 10 µM.

With `CC(N)(CCC(F)(F)F)CNC(=O)c1cnc2c(OCc3c(F)cccc3F)cccc2c1` (single isomer, unassigned; enantiomer b) [Example 40, ent-N-(2-Amino-5,5,5-trifluoro-2-methylpentyl)-8-[(2,6-difluorobenzyl)oxy]quinoline-3-carboxamide (Enantiomer B)], the minimal effective concentration came to 10 µM.

As for `Cc1cc(C(=O)NCC(C)(N)CCC(F)(F)F)c2cccc(OCc3c(F)cccc3F)c2n1` (single isomer, unassigned; enantiomer b) [Example 43, ent-N-(2-Amino-5,5,5-trifluoro-2-methylpentyl)-8-[(2,6-difluorobenzyl)oxy]-2-methylquinoline-4-carboxamide (Enantiomer B)], the minimal effective concentration was found to be 1 µM.

Take `Cc1cc(OCc2c(F)cccc2F)c2nccc(C(=O)NCC(C)(N)CCC(F)(F)F)c2c1` (single isomer, unassigned; enantiomer b) [Example 45, ent-N-(2-Amino-5,5,5-trifluoro-2-methylpentyl)-8-[(2,6-difluorobenzyl)oxy]-6-methylquinoline-4-carboxamide (Enantiomer B)]: the minimal effective concentration stood at 0.65 µM.

Take `CCC(C)(N)CNC(=O)c1cc(C)nc2c(OCc3c(F)cccc3F)cccc12` (single isomer, unassigned; enantiomer b) [Example 47, ent-N-(2-Amino-2-methylbutyl)-8-[(2,6-difluorobenzyl)oxy]-2-methylquinoline-4-carboxamide (Enantiomer B)]: the minimal effective concentration was determined as 3 µM.

On to `CC(C)(O)C(CCC(F)(F)C(F)(F)F)NC(=O)c1ccnc2c(OCc3c(F)cccc3F)cccc12` (single isomer, unassigned; ent-8) [Example 32, ent-8-[(2,6-Difluorobenzyl)oxy]-N-(6,6,7,7,7-pentafluoro-2-hydroxy-2-methylheptan-3-yl)quinoline-4-carboxamide (Enantiomer A)], for which the minimal effective concentration was determined as 2 µM.

With `O=C(NC1(c2ccc(F)c(F)c2)CC1)c1ccnc2c(OCc3c(F)cccc3F)cccc12` [Example 1, 8-[(2,6-Difluorobenzyl)oxy]-N-[1-(3,4-difluorophenyl)cyclopropyl]quinoline-4-carboxamide], the minimal effective concentration came out at 3 µM.

Take `O=C(Nc1ccnc2ccc(F)cc12)c1ccnc2c(OCc3c(F)cccc3F)cccc12` [Example 2, 8-[(2,6-Difluorobenzyl)oxy]-N-(6-fluoroquinolin-4-yl)quinoline-4-carboxamide]: the minimal effective concentration is 10 µM.

For the molecule `CCCC[C@H](C)NC(=O)c1ccnc2c(OCc3c(F)cccc3F)cccc12` [Example 3, 8-[(2,6-Difluorobenzyl)oxy]-N-[(2S)-hexan-2-yl]quinoline-4-carboxamide], the minimal effective concentration worked out at 1 µM.

Regarding `CCCC[C@H](CO)NC(=O)c1ccnc2c(OCc3c(F)cccc3F)cccc12` [Example 4, 8-[(2,6-Difluorobenzyl)oxy]-N-[(2R)-1-hydroxyhexan-2-yl]quinoline-4-carboxamide], the minimal effective concentration was 3 µM.

In the case of `CC[C@](C)(N)CNC(=O)c1ccnc2c(OCc3c(F)cccc3F)cccc12` [Example 5, N-[(2S)-2-Amino-2-methylbutyl]-8-[(2,6-difluorobenzyl)oxy]quinoline-4-carboxamide], the minimal effective concentration worked out at 3 µM.

Regarding `O=C(NCCC1(O)CCCC1)c1ccnc2c(OCc3c(F)cccc3F)cccc12` [Example 8, 8-[(2,6-Difluorobenzyl)oxy]-N-[2-(1-hydroxycyclopentyl)ethyl]quinoline-4-carboxamide], the minimal effective concentration is 3 µM.

Take `O=C(NC1c2ccccc2CC1O)c1ccnc2c(OCc3c(F)cccc3F)cccc12` (stereo not shown) [Example 9]: the minimal effective concentration was determined as 3 µM.

Take `O=C(N[C@@H](CO)C(=O)Nc1ccc2ccccc2c1)c1ccnc2c(OCc3c(F)cccc3F)cccc12` [Example 10]: the minimal effective concentration was 10 µM.

As for `CCC(N)(CC)CNC(=O)c1ccnc2c(OCc3c(F)cccc3F)cccc12` [Example 11], the minimal effective concentration worked out at 3 µM.

`CC1(C)CC(NC(=O)c2ccnc3c(OCc4c(F)cccc4F)cccc23)CC(C)(C)N1` [Example 12]: the minimal effective concentration is 10 µM.

With `O=C(NC1CC1c1ccccc1)c1ccnc2c(OCc3c(F)cccc3F)cccc12` (stereo not shown) [Example 13], the minimal effective concentration amounted to 10 µM.

For the molecule `CN(C)CCNC(=O)c1ccnc2c(OCc3c(F)cccc3F)cccc12` [Example 14], the minimal effective concentration was 10 µM.

With `O=C(NCc1ccccc1-c1cccnc1)c1ccnc2c(OCc3c(F)cccc3F)cccc12` [Example 15], the minimal effective concentration was 10 µM.

For the molecule `O=C(NCCN1CCOCC1)c1ccnc2c(OCc3c(F)cccc3F)cccc12` [Example 16], the minimal effective concentration was 10 µM.

In the case of `Cc1nn(Cc2ccc(F)cc2)c(C)c1NC(=O)c1ccnc2c(OCc3c(F)cccc3F)cccc12` [Example 17], the minimal effective concentration came out at 10 µM.

In the case of `CC(NC(=O)c1ccnc2c(OCc3c(F)cccc3F)cccc12)c1nc(C(F)(F)F)no1` (stereo not shown) [Example 18], the minimal effective concentration was determined as 3 µM.

Consider `Cc1[nH]nc(C(F)(F)F)c1NC(=O)c1ccnc2c(OCc3c(F)cccc3F)cccc12` [Example 19], for which the minimal effective concentration stood at 3 µM.

As to `O=C(NCc1ccc(Cl)nc1)c1ccnc2c(OCc3c(F)cccc3F)cccc12` [Example 20], the minimal effective concentration came to 3 µM.

Regarding `CC(COCC(F)(F)F)NC(=O)c1ccnc2c(OCc3c(F)cccc3F)cccc12` (stereo not shown) [Example 21], the minimal effective concentration stood at 3 µM.

For the molecule `O=C(NCC1(O)CC1)c1ccnc2c(OCc3c(F)cccc3F)cccc12` [Example 22], the minimal effective concentration was determined as 3 µM.

On to `O=C(NCCN(CC(F)F)C1CC1)c1ccnc2c(OCc3c(F)cccc3F)cccc12` [Example 23], for which the minimal effective concentration was found to be 3 µM.

As for `O=C(N[C@H]1CCOC1=O)c1ccnc2c(OCc3c(F)cccc3F)cccc12` [Example 24], the minimal effective concentration was 10 µM.

On to `CCC(CO)(CO)NC(=O)c1ccnc2c(OCc3c(F)cccc3F)cccc12` [Example 25], for which the minimal effective concentration was found to be 10 µM.

With `CN1CCC(NC(=O)c2ccnc3c(OCc4c(F)cccc4F)cccc23)c2ccccc21` (stereo not shown) [Example 27], the minimal effective concentration is 1 µM.

In the case of `O=C(NCc1ccccc1-n1ccnc1)c1ccnc2c(OCc3c(F)cccc3F)cccc12` [Example 28], the minimal effective concentration amounted to 3 µM.

For the molecule `O=C(NC1CCCc2ccccc21)c1ccnc2c(OCc3c(F)cccc3F)cccc12` (stereo not shown) [Example 29], the minimal effective concentration worked out at 0.3 µM.

Turning to `O=C(Nc1cnn(CCO)c1)c1ccnc2c(OCc3c(F)cccc3F)cccc12` [Example 30], the minimal effective concentration turned out to be 10 µM.

For the molecule `N#CC(NC(=O)c1ccnc2c(OCc3c(F)cccc3F)cccc12)c1ccc(Cl)cc1` (stereo not shown) [Example 31], the minimal effective concentration came to 3 µM.

Consider `O=C(NC(CO)c1ccc(F)cc1)c1ccnc2c(OCc3c(F)cccc3F)cccc12` (stereo not shown) [Example 33], for which the minimal effective concentration turned out to be 2 µM.

Regarding `O=C(NC1CCOc2ncccc21)c1ccnc2c(OCc3c(F)cccc3F)cccc12` (stereo not shown) [Example 34], the minimal effective concentration is 1 µM.

Take `CCCC[C@H](CO)NC(=O)c1cnc2c(OCc3c(F)cccc3F)cccc2c1` [Example 38, 8-[(2,6-Difluorobenzyl)oxy]-N-[(2R)-1-hydroxyhexan-2-yl]quinoline-3-carboxamide]: the minimal effective concentration was 3 µM.
